Measurements from ChEMBL document CHEMBL4507276 (2021).

Columns and labels:
[1] = biological target: Macrophage colony-stimulating factor 1 receptor (Homo sapiens) (UniProt P07333); conditions: Compound concentration 1000.0 nM
[2] = biological target: NT-3 growth factor receptor (Homo sapiens) (UniProt Q16288); conditions: Compound concentration 1000.0 nM
[3] = biological target: Beta-1 adrenergic receptor (Homo sapiens) (UniProt P08588); experiment: BETA1/HUM Cerep selectivity data (BI); conditions: Compound concentration 20.0 uM
[4] = biological target: Oxysterols receptor LXR-beta (Homo sapiens) (UniProt P55055); experiment: LXR_BETAH_AGON Cerep selectivity data (BI); conditions: filed as agonist, Compound concentration 20.0 uM
[5] = biological target: Melanocyte-stimulating hormone receptor (Mus musculus) (UniProt Q01727); experiment: MC1_AGON Cerep selectivity data (BI); conditions: filed as agonist, Compound concentration 20.0 uM
[6] = biological target: Somatostatin receptor type 4 (Homo sapiens) (UniProt P31391); experiment: SST4_HU Cerep selectivity data (BI); conditions: Compound concentration 20.0 uM
[7] = biological target: Histamine H1 receptor (Homo sapiens) (UniProt P35367); experiment: H1/H Eurofins-Panlabs selectivity data (BI); conditions: Compound concentration 10.0 uM
[8] = biological target: Neuropeptide Y receptor type 1 (Homo sapiens) (UniProt P25929); experiment: Y1/HU Eurofins-Panlabs selectivity data (BI); conditions: Compound concentration 10.0 uM
[9] = biological target: Cyclin-dependent kinase 2/cyclin A (Homo sapiens) (UniProt P24941+P20248+P78396); experiment: CDK2/CYCLINA Invitrogen selectivity data (BI); format: protein-complex assay; conditions: Compound concentration 3.0 uM
[10] = biological target: Cyclin-dependent kinase 5/CDK5 activator 1 (Homo sapiens) (UniProt Q00535+Q15078); experiment: CDK5/P25 Invitrogen selectivity data (BI); format: protein-complex assay; conditions: Compound concentration 3.0 uM
[11] = biological target: T1, Myotonin-protein kinase (Homo sapiens) (UniProt Q09013); experiment: DMPK Invitrogen selectivity data (BI); conditions: Compound concentration 3.0 uM
T1 sequence (whole entry): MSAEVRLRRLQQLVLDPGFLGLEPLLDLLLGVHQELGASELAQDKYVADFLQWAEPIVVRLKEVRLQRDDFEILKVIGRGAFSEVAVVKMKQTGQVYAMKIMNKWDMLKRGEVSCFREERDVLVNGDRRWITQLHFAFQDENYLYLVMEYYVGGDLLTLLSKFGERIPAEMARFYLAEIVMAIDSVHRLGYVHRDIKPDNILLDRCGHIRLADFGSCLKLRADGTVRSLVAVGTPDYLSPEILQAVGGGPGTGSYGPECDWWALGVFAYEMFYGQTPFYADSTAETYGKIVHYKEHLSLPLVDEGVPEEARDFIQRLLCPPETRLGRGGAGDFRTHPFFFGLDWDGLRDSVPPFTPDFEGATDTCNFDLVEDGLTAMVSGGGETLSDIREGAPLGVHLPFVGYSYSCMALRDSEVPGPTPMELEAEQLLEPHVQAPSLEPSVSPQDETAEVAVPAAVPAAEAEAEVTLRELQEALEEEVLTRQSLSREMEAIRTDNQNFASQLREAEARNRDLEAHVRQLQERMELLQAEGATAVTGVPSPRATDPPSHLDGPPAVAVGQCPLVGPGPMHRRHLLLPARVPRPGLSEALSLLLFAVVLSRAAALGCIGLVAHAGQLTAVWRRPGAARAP

[12] = biological target: Homeodomain-interacting protein kinase 1 (Homo sapiens) (UniProt Q86Z02); experiment: HIPK1 Invitrogen selectivity data (BI); conditions: Compound concentration 3.0 uM
[13] = biological target: Homeodomain-interacting protein kinase 2 (Homo sapiens) (UniProt Q9H2X6); experiment: HIPK2 Invitrogen selectivity data (BI); conditions: Compound concentration 3.0 uM
[14] = biological target: Insulin receptor-related protein (Homo sapiens) (UniProt P14616); experiment: INSRR Invitrogen selectivity data (BI); conditions: Compound concentration 3.0 uM
[15] = test system: Tyrosine-protein kinase JAK2 (Homo sapiens), O60674 [V617F]; experiment: JAK2 V617F Invitrogen selectivity data (BI); conditions: Compound concentration 3.0 uM
[16] = test system: Mast/stem cell growth factor receptor Kit (Homo sapiens), P10721 [V654A]; experiment: KIT_V654A Invitrogen selectivity data (BI); conditions: Compound concentration 3.0 uM
[17] = biological target: T2, MAP kinase-activated protein kinase 5 (Homo sapiens) (UniProt Q8IW41); experiment: MAPKAPK5 Invitrogen selectivity data (BI); conditions: Compound concentration 3.0 uM
T2 sequence (whole entry): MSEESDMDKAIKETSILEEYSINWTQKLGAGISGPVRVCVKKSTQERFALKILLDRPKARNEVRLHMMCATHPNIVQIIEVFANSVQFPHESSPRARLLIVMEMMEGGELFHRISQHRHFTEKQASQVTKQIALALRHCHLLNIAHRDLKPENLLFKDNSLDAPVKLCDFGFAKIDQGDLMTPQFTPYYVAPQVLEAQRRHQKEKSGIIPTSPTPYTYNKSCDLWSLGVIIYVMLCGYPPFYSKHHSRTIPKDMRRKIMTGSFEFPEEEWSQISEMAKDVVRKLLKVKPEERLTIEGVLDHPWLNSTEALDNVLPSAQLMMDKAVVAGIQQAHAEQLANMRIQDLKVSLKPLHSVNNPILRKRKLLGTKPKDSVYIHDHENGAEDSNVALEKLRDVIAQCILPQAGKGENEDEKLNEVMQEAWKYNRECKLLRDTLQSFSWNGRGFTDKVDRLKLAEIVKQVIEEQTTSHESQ

[18] = biological target: Protein kinase C gamma type (Homo sapiens) (UniProt P05129); experiment: PRKCG Invitrogen selectivity data (BI); conditions: Compound concentration 3.0 uM
[19] = biological target: Focal adhesion kinase 1 (Homo sapiens) (UniProt Q05397); experiment: PTK2 Invitrogen selectivity data (BI); conditions: Compound concentration 3.0 uM
[20] = biological target: Proto-oncogene tyrosine-protein kinase ROS (Homo sapiens) (UniProt P08922); experiment: ROS1 Invitrogen selectivity data (BI); conditions: Compound concentration 3.0 uM
[21] = biological target: 5-hydroxytryptamine receptor 2B (Homo sapiens) (UniProt P41595); conditions: Compound concentration 10.0 uM
5-hydroxytryptamine receptor 2B (Homo sapiens), sequence (P41595 whole entry): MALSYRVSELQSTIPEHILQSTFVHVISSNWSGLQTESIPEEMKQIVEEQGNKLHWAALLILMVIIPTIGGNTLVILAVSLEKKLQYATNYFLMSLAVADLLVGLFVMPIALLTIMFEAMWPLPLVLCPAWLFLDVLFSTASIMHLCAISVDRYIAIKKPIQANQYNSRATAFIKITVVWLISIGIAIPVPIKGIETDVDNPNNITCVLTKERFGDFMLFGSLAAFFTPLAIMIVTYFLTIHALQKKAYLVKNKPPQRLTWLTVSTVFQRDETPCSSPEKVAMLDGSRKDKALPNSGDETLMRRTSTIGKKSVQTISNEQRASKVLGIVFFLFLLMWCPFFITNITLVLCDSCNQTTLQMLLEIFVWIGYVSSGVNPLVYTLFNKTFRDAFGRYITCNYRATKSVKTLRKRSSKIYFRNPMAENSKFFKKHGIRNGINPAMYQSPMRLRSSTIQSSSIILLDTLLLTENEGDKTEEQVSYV

Melanocyte-stimulating hormone receptor (Mus musculus), sequence (Q01727 whole entry, looked up): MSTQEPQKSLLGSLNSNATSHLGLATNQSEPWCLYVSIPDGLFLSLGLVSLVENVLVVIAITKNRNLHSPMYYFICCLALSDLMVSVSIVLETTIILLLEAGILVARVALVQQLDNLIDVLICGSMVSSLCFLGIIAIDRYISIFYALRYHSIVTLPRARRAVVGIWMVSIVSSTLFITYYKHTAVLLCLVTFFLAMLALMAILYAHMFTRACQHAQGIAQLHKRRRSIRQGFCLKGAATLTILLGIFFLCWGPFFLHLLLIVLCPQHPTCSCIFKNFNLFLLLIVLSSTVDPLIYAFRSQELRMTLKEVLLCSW
Neuropeptide Y receptor type 1 (Homo sapiens), sequence (P25929 whole entry): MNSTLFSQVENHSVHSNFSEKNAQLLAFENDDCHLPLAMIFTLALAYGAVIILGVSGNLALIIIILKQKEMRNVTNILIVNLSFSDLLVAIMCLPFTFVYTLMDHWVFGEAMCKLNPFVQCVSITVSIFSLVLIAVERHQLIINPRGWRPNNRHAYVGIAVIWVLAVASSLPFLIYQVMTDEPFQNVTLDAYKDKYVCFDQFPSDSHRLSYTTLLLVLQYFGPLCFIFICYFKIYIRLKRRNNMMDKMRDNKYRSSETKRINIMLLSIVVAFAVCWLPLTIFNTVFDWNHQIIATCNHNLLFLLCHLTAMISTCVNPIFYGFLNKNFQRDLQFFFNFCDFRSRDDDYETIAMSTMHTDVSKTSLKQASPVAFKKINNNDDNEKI
Histamine H1 receptor (Homo sapiens), sequence (P35367 whole entry): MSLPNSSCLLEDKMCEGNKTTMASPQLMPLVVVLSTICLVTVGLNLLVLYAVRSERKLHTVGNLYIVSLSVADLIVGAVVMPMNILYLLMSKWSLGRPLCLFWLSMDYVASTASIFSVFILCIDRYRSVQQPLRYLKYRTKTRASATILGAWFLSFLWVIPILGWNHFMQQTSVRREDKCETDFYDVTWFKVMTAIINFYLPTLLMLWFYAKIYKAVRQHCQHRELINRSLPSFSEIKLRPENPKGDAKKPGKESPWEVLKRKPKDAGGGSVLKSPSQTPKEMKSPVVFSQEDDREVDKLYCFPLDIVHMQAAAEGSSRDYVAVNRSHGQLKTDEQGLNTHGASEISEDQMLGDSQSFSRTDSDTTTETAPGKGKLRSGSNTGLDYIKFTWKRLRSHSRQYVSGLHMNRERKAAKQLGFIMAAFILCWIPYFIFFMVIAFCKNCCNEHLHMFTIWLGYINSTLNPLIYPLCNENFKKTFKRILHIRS
Focal adhesion kinase 1 (Homo sapiens), sequence (Q05397 2-1052 limits assumed): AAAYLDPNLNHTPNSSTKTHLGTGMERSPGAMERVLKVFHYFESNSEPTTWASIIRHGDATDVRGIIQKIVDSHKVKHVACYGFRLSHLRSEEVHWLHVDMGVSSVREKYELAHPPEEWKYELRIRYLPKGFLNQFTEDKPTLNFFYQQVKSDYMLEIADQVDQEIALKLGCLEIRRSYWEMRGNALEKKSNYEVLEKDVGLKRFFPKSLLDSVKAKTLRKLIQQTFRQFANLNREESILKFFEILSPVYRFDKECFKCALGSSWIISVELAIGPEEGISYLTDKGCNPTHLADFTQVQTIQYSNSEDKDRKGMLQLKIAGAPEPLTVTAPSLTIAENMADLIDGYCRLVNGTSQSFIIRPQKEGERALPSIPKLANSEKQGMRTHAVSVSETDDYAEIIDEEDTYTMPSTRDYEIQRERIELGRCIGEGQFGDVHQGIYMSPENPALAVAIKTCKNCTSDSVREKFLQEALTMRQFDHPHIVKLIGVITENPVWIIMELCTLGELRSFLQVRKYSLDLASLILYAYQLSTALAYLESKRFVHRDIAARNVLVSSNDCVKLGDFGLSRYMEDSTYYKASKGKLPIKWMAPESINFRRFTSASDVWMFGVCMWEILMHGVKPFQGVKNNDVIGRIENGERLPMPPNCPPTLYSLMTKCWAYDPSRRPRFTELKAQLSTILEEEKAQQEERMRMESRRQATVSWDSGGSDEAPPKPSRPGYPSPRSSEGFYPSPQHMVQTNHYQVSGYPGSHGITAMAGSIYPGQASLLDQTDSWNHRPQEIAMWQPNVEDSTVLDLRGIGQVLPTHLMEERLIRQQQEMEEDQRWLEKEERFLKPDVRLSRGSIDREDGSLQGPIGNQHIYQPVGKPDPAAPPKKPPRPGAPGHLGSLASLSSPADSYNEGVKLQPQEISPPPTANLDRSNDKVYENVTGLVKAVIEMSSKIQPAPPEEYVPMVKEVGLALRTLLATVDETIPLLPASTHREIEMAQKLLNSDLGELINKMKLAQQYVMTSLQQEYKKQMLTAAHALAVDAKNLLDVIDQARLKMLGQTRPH
Mast/stem cell growth factor receptor Kit (Homo sapiens), P10721 [V654A], sequence (P10721 whole entry V654A): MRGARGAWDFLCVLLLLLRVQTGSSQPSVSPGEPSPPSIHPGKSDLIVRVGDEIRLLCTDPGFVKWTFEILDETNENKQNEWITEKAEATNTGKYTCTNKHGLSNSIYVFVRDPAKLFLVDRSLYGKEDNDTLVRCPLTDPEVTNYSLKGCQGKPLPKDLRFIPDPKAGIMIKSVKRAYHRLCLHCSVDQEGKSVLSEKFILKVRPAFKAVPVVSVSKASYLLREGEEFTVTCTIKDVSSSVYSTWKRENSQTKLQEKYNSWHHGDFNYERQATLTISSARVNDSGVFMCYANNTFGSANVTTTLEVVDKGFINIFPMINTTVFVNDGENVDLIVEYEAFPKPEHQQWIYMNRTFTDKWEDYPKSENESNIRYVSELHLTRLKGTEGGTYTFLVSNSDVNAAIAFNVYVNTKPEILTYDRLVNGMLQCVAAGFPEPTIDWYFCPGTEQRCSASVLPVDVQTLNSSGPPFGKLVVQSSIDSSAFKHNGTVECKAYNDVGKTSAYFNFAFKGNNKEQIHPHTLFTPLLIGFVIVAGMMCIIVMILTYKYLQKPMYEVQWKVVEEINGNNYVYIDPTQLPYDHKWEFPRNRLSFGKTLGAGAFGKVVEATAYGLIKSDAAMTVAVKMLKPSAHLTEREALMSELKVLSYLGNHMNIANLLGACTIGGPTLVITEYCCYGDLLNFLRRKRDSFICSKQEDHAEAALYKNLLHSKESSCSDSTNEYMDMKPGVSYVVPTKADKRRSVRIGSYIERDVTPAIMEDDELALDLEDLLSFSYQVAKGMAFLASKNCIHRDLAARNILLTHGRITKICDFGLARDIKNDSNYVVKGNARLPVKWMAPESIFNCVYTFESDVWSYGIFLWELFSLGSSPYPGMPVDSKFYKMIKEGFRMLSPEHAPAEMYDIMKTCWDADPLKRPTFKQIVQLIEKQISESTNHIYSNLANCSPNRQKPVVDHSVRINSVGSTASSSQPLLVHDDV
Insulin receptor-related protein (Homo sapiens), sequence (P14616 27-742 limits assumed): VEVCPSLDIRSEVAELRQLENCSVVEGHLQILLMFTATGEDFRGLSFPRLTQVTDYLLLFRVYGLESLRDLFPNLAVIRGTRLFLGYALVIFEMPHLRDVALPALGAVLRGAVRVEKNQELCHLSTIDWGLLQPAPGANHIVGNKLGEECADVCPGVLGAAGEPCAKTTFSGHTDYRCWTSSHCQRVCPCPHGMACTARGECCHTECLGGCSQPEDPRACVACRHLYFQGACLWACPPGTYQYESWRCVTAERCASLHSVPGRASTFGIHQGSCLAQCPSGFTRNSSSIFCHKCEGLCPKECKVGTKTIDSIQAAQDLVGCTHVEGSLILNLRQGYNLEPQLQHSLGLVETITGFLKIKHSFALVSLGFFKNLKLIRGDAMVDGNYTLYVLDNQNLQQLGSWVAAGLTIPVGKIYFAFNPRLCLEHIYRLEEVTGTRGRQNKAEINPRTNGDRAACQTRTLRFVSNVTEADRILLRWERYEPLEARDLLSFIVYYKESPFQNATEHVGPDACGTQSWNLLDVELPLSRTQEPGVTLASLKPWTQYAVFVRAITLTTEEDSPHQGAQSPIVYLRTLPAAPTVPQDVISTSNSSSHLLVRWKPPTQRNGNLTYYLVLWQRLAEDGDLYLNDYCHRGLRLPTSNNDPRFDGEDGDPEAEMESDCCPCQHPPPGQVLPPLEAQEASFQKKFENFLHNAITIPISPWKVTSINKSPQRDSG
Insulin receptor-related protein (Homo sapiens), sequence (P14616 747-1297 limits assumed): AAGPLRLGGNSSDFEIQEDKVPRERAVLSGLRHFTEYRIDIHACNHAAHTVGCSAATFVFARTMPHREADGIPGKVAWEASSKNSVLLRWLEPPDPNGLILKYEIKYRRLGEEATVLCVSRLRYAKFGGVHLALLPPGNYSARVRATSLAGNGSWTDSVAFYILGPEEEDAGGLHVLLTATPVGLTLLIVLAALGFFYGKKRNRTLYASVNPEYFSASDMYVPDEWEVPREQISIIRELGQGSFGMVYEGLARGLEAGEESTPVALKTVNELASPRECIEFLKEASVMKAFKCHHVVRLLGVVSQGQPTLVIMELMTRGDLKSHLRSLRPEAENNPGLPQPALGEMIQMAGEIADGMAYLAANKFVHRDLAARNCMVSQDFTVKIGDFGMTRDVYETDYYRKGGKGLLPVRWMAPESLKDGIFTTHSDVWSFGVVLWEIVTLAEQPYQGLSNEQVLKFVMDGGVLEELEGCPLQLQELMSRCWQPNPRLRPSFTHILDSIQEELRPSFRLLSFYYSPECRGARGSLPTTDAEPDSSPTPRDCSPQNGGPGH

CN(C)C(=O)Cn1cc(-c2nc(C3(c4ccc(-c5cnc(N)nc5)cc4)CC3)no2)cn1 [BI 0153]
inactive: residual activity [1] 100% | residual activity [2] 97%

CN(C)C(=O)Cn1cc(-c2nc([C@@](C)(c3ccc(-c4cnc(N)nc4)cc3)C3CC3)no2)cn1 [BI 665915]
inactive: residual activity [3] 100% | residual activity [4] 118% | residual activity [5] 101% | residual activity [6] 146% | residual activity [7] 103% | residual activity [8] 109% | residual activity [9] 100% | residual activity [10] 100% | residual activity [11] 100% | residual activity [12] 97% | residual activity [13] 96% | residual activity [14] 96% | residual activity [15] 96% | residual activity [16] 95% | residual activity [17] 98.5% | residual activity [18] 100% | residual activity [19] 87.5% | residual activity [20] 97.5% | inhibition [21] -5.4%
